Values quoted from earlier work as cited in patent US12394803B2, “Production method of catalyst, catalyst, production method of composition, composition, electrode, manufacturing method of electrode, fuel cell, metal-air battery” (Azul Energy Inc., priority 2019, dated 2025).

Details: background statement on Patent Document 1

[Fe+2].c1ccc2c(c1)-c1nc-2nc2[n-]c(nc3nc(nc4[n-]c(n1)c1ccccc41)-c1ccccc1-3)c1ccccc21 [Iron phthalocyanines, Iron phthalocyanine]
Solubility in 2-propanol: low solubility
